# Test results as given in patent US4695589A, “Alpha-(aminoalkyl-4-hydroxy-3-(alkylthio)benzenemethanols” (Sterling Drug Inc., priority 1983, dated 1987).
# Counter-ions that a name gives are not always drawn. Like-named read-outs stand apart in the source and are kept apart here.
# Key:
# [1] = system: heart rate increase elicited by isoproterenol in the pentobarbitalized dog; assay: β-adrenergic blocking activity in the pentobarbitalized dog; format: in vivo; conditions: for ED50 / inhibition at 0.1 mg/kg / inhibition at 1 mg/kg: Canis lupus familiaris; for ED50 / Adrenergic Activity Dog β-blockade AED50: approximate intravenous dose causing 50% inhibition of isoproterenol-elicited heart rate increase; for ED50: read-out: Adrenergic Activity Dog β-blockade AED50; for inhibition at 0.1 mg/kg: 0.1 mg./kg. intravenous; for inhibition at 0.1 mg/kg / inhibition at 1 mg/kg: read-out: Actual percentage inhibition of heart rate increase above control level at the indicated dose; for inhibition at 1 mg/kg: 1.0 mg./kg. intravenous
# Experimental: The β-adrenergic blocking activity was determined in the pentobarbitalized dog as judged by the ability of the test compound to inhibit the elevation is heart rate elicited by a 0.5 mcg./kg. i.v. injection of isoproterenol.
# ^e AED50 = approximate intravenous dose required to cause 50%
# inhibition of the heart rate increase elicited by isoproterenol in the
# ^h Actual percentage inhibition of heart rate increase above control
# level observed at the indicated dose.
# [2] = system: hind limb vasculature of the anesthetized dog; assay: Vasodilator activity, dog-leg perfusion; format: in vivo; conditions: approximate intraarterial dose causing 50% reduction in perfusion pressure in hind limb; for ED50: Canis lupus familiaris, read-out: Vasodilator Activity Dog-Leg Perfusion AED50
# Description: (§1) Vasodilator activity was judged on the basis of observed reduction in perfusion pressure in the hind limb vasculature of the anesthetized dog determined according to the procedure described by Jandhyala et al., European J. Pharm. 17, 357 (1972), and also on the basis of percent reduction in perfusion pressure as measured in the isolated rabbit ear artery according to the method described by De LaLande et al., Aust. J. Exp. Biol. Med. Sci. 43, 639 (1965).
# ^c AED50 =approximate intraarterial dose required to cause a 50%
# reduction in perfusion pressure in the hind limb of the anesthetized dog.
# [3] = system: unanesthetized spontaneous hypertensive rat; assay: Antihypertensive activity, single oral medication in the spontaneous hypertensive rat (SH Rat); format: in vivo; conditions: for ED (40 mm Hg): Rattus norvegicus, single oral dose required to induce a 40 mm average reduction in systolic blood pressure, read-out: Antihypertensive Activity SH Rat AHD40 mg./kg. P.O.; for Actual reduction in blood pressure observed at the indicated dose: SH rat; for lower blood pressure: at 50 mg./kg.
# Experimental: Antihypertensive activity was determined on the basis of the observed reduction in systolic blood pressure measured according to the method of H. Kersten et al., J. Lab. and Clin. Med. 32, 1090 (1947) following a single oral medication in the unanesthetized spontaneous hypertensive rat described by Okamato et al., Japan Circulation J. 27, 282 (1963).
# ^a AHD40 = single oral dose required to induce a 40 mm average
# reduction in systolic blood pressure in the unanesthetized spontaneous
# ^f Actual reduction in blood pressure (in mm Hg) observed at the […]
# [4] = system: histamine-induced bronchoconstriction in the dog; assay: Block of histamine-induced bronchoconstriction in the dog (β-adrenergic stimulant activity); format: in vivo
# [5] = system: isolated rabbit ear artery; assay: Vasodilator activity, isolated rabbit ear artery perfusion pressure; conditions: Oryctolagus cuniculus, read-out: Rabbit Ear Artery vasodilation (percentage reduction in perfusion pressure); for inhibition at 10 µM: 1 × 10^-5 M; for inhibition at 20 µM: 2 × 10^-5 M; for inhibition at 50 µM: 5 × 10^-5 M
# Description: as §1
# ^d Vasodilation is expressed as the percentage reduction in perfusion
# pressure from the control level at the indicated molar dose.
# [6] = system: unanesthetized trained renal hypertensive dog; assay: Antihypertensive activity, repeated oral medication in the renal hypertensive dog; format: in vivo; conditions: for minimal effective dose: Canis lupus familiaris, minimum repeated oral daily dose for sustained lowering of blood pressure of 10% or greater, tid, read-out: Antihypertensive Activity Renal Hypertensive Dog MED10 mg./kg. tid
# Description: Antihypertensive activity was also judged on the basis of sustained reduction of blood pressure observed in the unanesthetized trained renal hypertensive dog following repeated oral medication according to the procedure described by Lape et al., Arch. Int. Pharmacodyn. 160, 342 (1966).
# ^b MED10 = minimum repeated oral daily dose required to effect a
# sustained lowering of blood pressure of 10% or greater in the
# unanesthetized trained renal hypertensive dog.
# ^g Actual precentage reduction in blood pressure observed at the […]
# [7] = system: ouabain-induced arrhythmia in dogs; assay: Ouabain-induced arrhythmia conversion
structure (smiles),measurement,setting,value
"COc1ccc(CCC(C)NCC(O)c2ccc(O)c(SC)c2)cc1 (single isomer, unassigned) [Example 13A]",ED50,[1]; iv,> 0.1 mg/kg
same,inhibition at 0.1 mg/kg,[1],14%
same,ED50,[2],0.5 mg/kg
"COc1ccc(CCC(C)NCC(O)c2ccc(O)c(SC)c2)cc1 (single isomer, unassigned) [Example 13B]",Adrenergic Activity Dog β-blockade AED50,[1],0.1 mg/kg
same,Vasodilator Activity Dog-Leg Perfusion AED50,[2],0.5 mg/kg
"CSc1cc(C(O)CNC(C)CCc2ccc(O)cc2)ccc1O (single isomer, unassigned) [Example 40B, 4-hydroxy-α-<{[3-(4-hydroxyphenyl)-1-methylpropyl]amino}-methyl>-3-(methylthio)benzenemethanol cyclohexanesulfamate]",ED50,[1]; iv,0.1 mg/kg
same,ED (40 mm Hg),[3],> 50 mg/kg
same,Actual reduction in blood pressure observed at the indicated dose,[3]; 50.0 mg./kg. P.O.,-9 mm Hg
"COc1ccc(CC(C)NCC(O)c2ccc(OC(C)=O)c(SC)c2)cc1 (stereo not drawn) [Example 2, 4-hydroxy-α-<{[2-(4-methoxyphenyl-1-methylethyl]amino}methyl>-3-(methylthio)benzenemethanol 4-aceetate hydrochloride]",inhibition at 1 mg/kg,[1],60%
same,ED50,[1],< 1 mg/kg
same,β-adrenergic stimulant activity,[4],ability to block histamine-induced bronchoconstriction
same,ED50,[2],0.5 mg/kg
same,inhibition at 10 µM,[5],50%
same,ED (40 mm Hg),[3],10 mg/kg
"COc1ccc(CC(C)NCC(O)c2ccc(O)c(SC)c2)cc1 (stereo not drawn) [Example 3, 4-hydroxy-α-<{[2-(4-methoxyphenyl)-1-methylethyl]amino}methyl>-3-(methylthio)benzenemethanol acetate salt]",ED50,[1],0.1 mg/kg
same,ED50,[2],0.5 mg/kg
same,inhibition at 20 µM,[5],56%
same,ED (40 mm Hg),[3],20 mg/kg
"COc1ccc(CCC(C)NCC(O)c2ccc(O)c(SC)c2)cc1 (stereo not drawn) [Example 5, 4-hydroxy-α-<{[3-(4-methoxyphenyl)-1-methylpropyl]amino}methyl>-3-(methylthio)benzenemethanol acetate salt]",ED50,[1]; iv,0.1 mg/kg
same,ED50,[2],0.5 mg/kg
same,inhibition at 100 µM,[5]; 1 × 10^-4 M,55%
same,minimal effective dose,[6],> 2.5 mg/kg
same,Actual percentage reduction in blood pressure observed at the indicated dose,"[6]; renal hypertensive dog, 2.5 mg./kg. tid",0%
same,ED (40 mm Hg),[3],15 mg/kg
same,lowers blood pressure,[3]; at a dose of 15 mg./kg.,40 mm
same,potency relative to the reference compounds,[3]; at less than one-third the dose of Reference Compounds I and II,twice as potent
"COc1ccc(CCC(C)NCC(O)c2ccc(O)c(SC)c2)cc1 (stereo not drawn) [Example 12B, 4-hydroxy-α-<{[3-(4-methoxyphenyl)-1-methylpropyl]amino}methyl>3-(methylthio)benzenemethanol acetate salt]",inhibition at 0.1 mg/kg,[1],45%
same,Adrenergic Activity Dog β-blockade AED50,[1]; acetate salt,> 0.1 mg/kg
"COc1ccc(CCC(C)NCC(O)c2ccc(O)c(SC)c2)cc1 (stereo not drawn) [Example 12C, 4-hydroxy-α<{[3-(4-methoxyphenyl)-1-methylpropyl]amino}methyl>-3-(methylthio)benzenemethanol acetate salt]",Adrenergic Activity Dog β-blockade AED50,[1]; acetate salt,~0.10 mg/kg
"COc1ccc(CCC(C)NCC(O)c2ccc(OC(=O)c3ccccc3)c(SC)c2)cc1 (stereo not drawn) [Example 15A, 4-hydroxy-α-<{[3-(4-methoxyphenyl)-1-methylpropyl]amino}methyl>-3-(methylthio)benzenemethanol 4-benzoate acetate salt]",ED (40 mm Hg),[3],> 50 mg/kg
same,Actual reduction in blood pressure observed at the indicated dose,[3]; 50.0 mg./kg. P.O.,-10 mm Hg
"CC(=O)O.CSc1cc(C(O)CNC(C)(C)Cc2ccccc2)ccc1O (stereo not drawn) [Example 20, α-{[(1,1-dimethyl-2-phenylethyl)amino]methyl}-4-hydroxy-3-(methylthio)benzenemethanol acetate salt]",inhibition at 1 mg/kg,[1],56%
same,ED50,[1],< 1 mg/kg
same,ED50,[2],0.5 mg/kg
same,inhibition at 10 µM,[5],71%
same,ED (40 mm Hg),[3],~50 mg/kg
"CSc1cc(C(O)CNC(C)Cc2ccccc2)ccc1O (stereo not drawn) [Example 22, 4-hydroxy-α-{[(1-methyl-3-phenylethyl)amino]methyl}-3-(methylthio)benzenemethanol acetate salt]",inhibition at 1 mg/kg,[1],60%
same,ED50,[1],< 1 mg/kg
same,ED50,[2],0.5 mg/kg
same,inhibition at 20 µM,[5],33%
same,ED (40 mm Hg),[3],35 mg/kg
"COc1ccc(CC(C)NC(C)C(O)c2ccc(O)c(SC)c2)cc1 (stereo not drawn) [Example 24, 4-hydroxy-α-<{[2-(4-methoxyphenyl)-1-methylethyl]amino}ethyl>-3-(methylthio)benzenemethanol acetate salt]",ED (40 mm Hg),[3],> 20 mg/kg
same,Actual reduction in blood pressure observed at the indicated dose,[3]; 20.0 mg./kg. P.O.,-23 mm Hg
"CC(=O)O.CSc1cc(C(O)CNC(C)(C)CCc2ccccc2)ccc1O (stereo not drawn) [Example 28, α-{[(1,1-dimethyl-3-phenylpropyl)amino]methyl}-4-hydroxy-3-(methylthio)benzenemethanol acetate salt]",ED50,[1]; iv,< 1 mg/kg
same,inhibition at 1 mg/kg,[1],100%
same,ED50,[2],0.5 mg/kg
same,inhibition at 50 µM,[5],70%
same,ED (40 mm Hg),[3],~10 mg/kg
"COc1ccc(CCC(C)(C)NCC(O)c2ccc(O)c(SC)c2)cc1 (stereo not drawn) [Example 30, α-<{[1,1-dimethyl-3-(4-methoxyphenyl)propyl]amino}methyl>-4-hydroxy-3-(methylthio)benzenemethanol acetate salt]",ED50,[1]; iv,< 1 mg/kg
same,inhibition at 1 mg/kg,[1],72%
same,ED50,[2],0.5 mg/kg
same,inhibition at 90 µM,[5]; 9 × 10^-5 M,50%
same,minimal effective dose,[6],0.5 mg/kg
same,ED (40 mm Hg),[3],20 mg/kg
"CSc1cc(C(O)CNC(C)CCc2ccccc2)ccc1O (stereo not drawn) [Example 32, 4-hydroxy-α-{[(1-methyl-3-phenylpropyl)amino]methyl}-3-methylthio)benzenemethanol acetate salt]",ED50,[1]; iv,0.1 mg/kg
same,ED50,[2],0.5 mg/kg
same,inhibition at 50 µM,[5],81%
same,ED (40 mm Hg),[3],5 mg/kg
"COc1ccc(CCCC(C)NCC(O)c2ccc(O)c(SC)c2)cc1 (stereo not drawn) [Example 36, 4-hydroxy-α-<{[4-(4-methoxyphenyl)1-methylbutyl]amino}methyl>-3-(methylthio)benzenemethanol acetate salt]",ED (40 mm Hg),[3],> 50 mg/kg
same,Actual reduction in blood pressure observed at the indicated dose,[3]; 50.0 mg./kg. P.O.,-17 mm Hg
"COc1cc(CCNCC(O)c2ccc(O)c(SC)c2)cc(OC)c1OC (stereo not drawn) [Example 51, 4-hydroxy-3-(methylthio)-α-<{[2-(3,4,5-trimethoxyphenyl)ethylamino}methyl>benzenemethanol hydrochloride]",toxic dose in the ouabain test,[7]; anesthetized dog,2.5×10^-5 Mg/kg.
same,activity in the ouabain test,[7]; below 2.5×10^-5 Mg/kg.,inactive
"COc1ccc(CCC(C)NCC(O)c2ccc(SC)c(O)c2)cc1 (stereo not drawn) [Ref Cpd I, 3-hydroxy-α-<{[3-(4-methoxyphenyl)-1-methylpropyl]amino}methyl>-4-(methylthio)benzenemethanol acetate salt, reference compound]",ED (40 mm Hg),[3],> 50 mg/kg
same,Actual reduction in blood pressure observed at the indicated dose,[3]; 50.0 mg./kg. P.O.,-20 mm Hg
same,lower blood pressure,[3],20 mm
"COc1ccc(CCC(C)NCC(O)c2ccc(OC)c(SC)c2)cc1 (stereo not drawn) [Ref Cpd II, 4-methoxy-α-<{[3-(4-methoxyphenyl)-1-methylpropyl]amino}methyl>-3-(methylthio)benzenemethanol hydrochloride, reference compound]",ED50,[1]; iv,0.07 mg/kg
same,ED (40 mm Hg),[3],> 50 mg/kg
same,Actual reduction in blood pressure observed at the indicated dose,[3]; 50.0 mg./kg. P.O.,-24 mm Hg
same,lower blood pressure,[3],24 mm
